How the values were obtained:
PB1A(5) = biological target: T1, PB1A(5) (Homo sapiens, UniProt Q86U86); test: Bromodomain thermal shift screening (DSF); format: binding; details: Group VIII
T1 construct: Bromodomain thermal shift screening data for 16k
Experimental: (§1) BRD4 thermal shift was measured in a differential scanning fluorimetry (DSF) assay. The assay was performed on a Stratagene Mx3005P system quantitative polymerase chain reaction (qPCR). The assay was performed in 96-well plates with 20 μL of protein at 2 μM in DSF-assay buffer (10 mM HEPES pH 7.5, 500 mM NaCl) to which 4 μL of Sypro orange dye and 0.4 μL of 10 μM compound in DMSO was added. The plate was sealed and centrifuged (1 min, 1000 rpm), and the qPCR machine was used to detect SYPRO fluorescence while increasing the temperature from 25 to 95 °C in 71 cycles. The sigmoidal part of the fluorescence signal was fitted using the Boltzmann equation, the points of change were defined, and the thermal shift was calculated by subtracting the protein/DMSO Tm shift from the protein/compound Tm shift.

BRD3(1) = biological target: T2, BRD3(1) (Homo sapiens, UniProt Q15059); test: Bromodomain thermal shift screening (DSF); format: binding; details: Group II (BET)
T2 construct: BRD3(1)
Experimental: as §1

BRD1 = biological target: T3, BRD1 (Homo sapiens, UniProt O95696); test: Bromodomain thermal shift screening (DSF); format: binding; details: Group IV
T3 construct: Bromodomain thermal shift screening data for 16k
T3 sequence (O95696 562-666 limits assumed): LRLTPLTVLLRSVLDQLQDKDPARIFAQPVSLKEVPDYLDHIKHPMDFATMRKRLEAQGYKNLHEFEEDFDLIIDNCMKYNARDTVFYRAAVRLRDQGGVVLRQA
Experimental: as §1

BRD3(2) = biological target: T4, BRD3(2) (Homo sapiens, UniProt Q15059); test: Bromodomain thermal shift screening (DSF); format: binding; details: Group II (BET)
T4 construct: BRD3(2)
T4 sequence (Q15059 306-415 limits assumed, species assumed): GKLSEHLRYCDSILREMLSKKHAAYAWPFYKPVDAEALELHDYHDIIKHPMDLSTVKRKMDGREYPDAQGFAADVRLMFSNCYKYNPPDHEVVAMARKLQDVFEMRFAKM
Experimental: as §1

BRDT(1) = biological target: T5, BRDT(1) (Homo sapiens, UniProt Q58F21); test: Bromodomain thermal shift screening (DSF); format: binding; details: Group II (BET)
T5 construct: Bromodomain thermal shift screening data for 16k
Experimental: as §1

PB1A(4) = biological target: T6, PB1A(4) (Homo sapiens, UniProt Q86U86); test: Bromodomain thermal shift screening (DSF); format: binding; details: Group VIII
T6 construct: Bromodomain thermal shift screening data for 16k
T6 sequence (Q86U86 518-625 limits assumed): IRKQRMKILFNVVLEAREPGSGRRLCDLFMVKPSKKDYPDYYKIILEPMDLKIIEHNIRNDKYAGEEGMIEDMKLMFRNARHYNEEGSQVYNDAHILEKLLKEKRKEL
Experimental: as §1

BRDT(2) = biological target: T7, BRDT(2) (Homo sapiens, UniProt Q58F21); test: Bromodomain thermal shift screening (DSF); format: binding; details: Group II (BET)
T7 construct: Bromodomain thermal shift screening data for 16k
Experimental: as §1

BRD4(2) = biological target: T8, BRD4(2) (Homo sapiens, UniProt O60885); test: Bromodomain thermal shift screening (DSF); format: binding; details: Group II (BET)
T8 construct: BRD4(2)
Experimental: as §1

TAF1A(1) = biological target: T9, TAF1A(1) (Homo sapiens, UniProt P21675); test: Bromodomain thermal shift screening (DSF); format: binding; details: Group VII
T9 construct: Bromodomain thermal shift screening data for 16k
T9 sequence (P21675 1397-1505 limits assumed): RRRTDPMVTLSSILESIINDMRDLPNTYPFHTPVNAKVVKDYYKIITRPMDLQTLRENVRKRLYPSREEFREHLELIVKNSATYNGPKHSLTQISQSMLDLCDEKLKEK
Experimental: as §1

PB1A(1) = biological target: T10, PB1A(1) (Homo sapiens, UniProt Q86U86); test: Bromodomain thermal shift screening (DSF); format: binding; details: Group VIII
T10 construct: Bromodomain thermal shift screening data for 16k
Experimental: as §1

EP300 = biological target: T11, EP300 (Homo sapiens, UniProt Q09472); test: Bromodomain thermal shift screening (DSF); format: binding; details: Group III
T11 construct: Bromodomain thermal shift screening data for 16k
T11 sequence (Q09472 1049-1156 limits assumed): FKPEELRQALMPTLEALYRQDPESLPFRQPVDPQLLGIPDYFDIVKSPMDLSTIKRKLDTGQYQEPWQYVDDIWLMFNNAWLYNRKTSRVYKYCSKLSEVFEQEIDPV
Experimental: as §1

BRPF1A = biological target: T12, BRPF1A (Homo sapiens, UniProt P55201); test: Bromodomain thermal shift screening (DSF); format: binding; details: Group IV
T12 construct: Bromodomain thermal shift screening data for 16k
Experimental: as §1

TRIM33B = test: Bromodomain thermal shift screening (DSF); format: binding; details: Group V
Experimental: as §1

BRD2(2) = biological target: T13, BRD2(2) (Homo sapiens, UniProt P25440); test: Bromodomain thermal shift screening (DSF); format: binding; details: Group II (BET)
T13 construct: BRD2(2)
T13 sequence (P25440 344-453 limits assumed, species assumed): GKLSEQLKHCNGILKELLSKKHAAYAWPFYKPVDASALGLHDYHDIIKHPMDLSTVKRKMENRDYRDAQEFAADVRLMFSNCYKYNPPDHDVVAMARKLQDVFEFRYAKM
Experimental: as §1

TAF1A(2) = biological target: T14, TAF1A(2) (Homo sapiens, UniProt P21675); test: Bromodomain thermal shift screening (DSF); format: binding; details: Group VII
T14 construct: Bromodomain thermal shift screening data for 16k
Experimental: as §1

TAF1LA(1) = biological target: T15, TAF1LA(1) (Homo sapiens, UniProt Q8IZX4); test: Bromodomain thermal shift screening (DSF); format: binding; details: Group VII
T15 construct: Bromodomain thermal shift screening data for 16k
T15 sequence (Q8IZX4 1395-1503 limits assumed): as the sequence (P21675 1397-1505 limits assumed) above, with Y28H, R62C counted along it
Experimental: as §1

PCAF = biological target: T16, PCAF (Homo sapiens, UniProt Q92831); test: Bromodomain thermal shift screening (DSF); format: binding; details: Group I
T16 construct: Bromodomain thermal shift screening data for 16k
Experimental: as §1

PB1A(6) = biological target: T17, PB1A(6) (Homo sapiens, UniProt Q86U86); test: Bromodomain thermal shift screening (DSF); format: binding; details: Group VIII
T17 construct: Bromodomain thermal shift screening data for 16k
T17 sequence (Q86U86 769-879 limits assumed): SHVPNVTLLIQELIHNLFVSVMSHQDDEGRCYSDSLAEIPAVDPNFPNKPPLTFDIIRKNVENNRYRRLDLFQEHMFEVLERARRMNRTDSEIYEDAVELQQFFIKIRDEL
Experimental: as §1

WDR9 = test: Bromodomain thermal shift screening (DSF); format: binding; details: Group VII
Experimental: as §1

SMARCA4A = biological target: T18, SMARCA4A (Homo sapiens, UniProt P51532); test: Bromodomain thermal shift screening (DSF); format: binding; details: Group VIII
T18 construct: Bromodomain thermal shift screening data for 16k
Experimental: as §1

SMARCA2B = biological target: T19, SMARCA2B (Homo sapiens, UniProt P51531); test: Bromodomain thermal shift screening (DSF); format: binding; details: Group VIII
T19 construct: Bromodomain thermal shift screening data for 16k
Experimental: as §1

BRD2(1) = biological target: T20, BRD2(1) (Homo sapiens, UniProt P25440); test: Bromodomain thermal shift screening (DSF); format: binding; details: Group II (BET)
T20 construct: BRD2(1)
T20 sequence (P25440 74-180 limits assumed, species assumed): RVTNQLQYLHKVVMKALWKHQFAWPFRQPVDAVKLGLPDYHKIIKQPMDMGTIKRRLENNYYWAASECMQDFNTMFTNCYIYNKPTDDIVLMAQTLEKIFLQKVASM
Experimental: as §1

TAF1LA(2) = biological target: T21, TAF1LA(2) (Homo sapiens, UniProt Q8IZX4); test: Bromodomain thermal shift screening (DSF); format: binding; details: Group VII
T21 construct: Bromodomain thermal shift screening data for 16k
Experimental: as §1

PB1A(3) = biological target: T22, PB1A(3) (Homo sapiens, UniProt Q86U86); test: Bromodomain thermal shift screening (DSF); format: binding; details: Group VIII
T22 construct: Bromodomain thermal shift screening data for 16k
Experimental: as §1

SP100 = biological target: T23, SP100 (Homo sapiens, UniProt P23497); test: Bromodomain thermal shift screening (DSF); format: binding; details: Group V
T23 construct: Bromodomain thermal shift screening data for 16k
Experimental: as §1

SMARCA2A = biological target: T24, SMARCA2A (Homo sapiens, UniProt P51531); test: Bromodomain thermal shift screening (DSF); format: binding; details: Group VIII
T24 construct: Bromodomain thermal shift screening data for 16k
T24 sequence (P51531 1378-1506 limits assumed): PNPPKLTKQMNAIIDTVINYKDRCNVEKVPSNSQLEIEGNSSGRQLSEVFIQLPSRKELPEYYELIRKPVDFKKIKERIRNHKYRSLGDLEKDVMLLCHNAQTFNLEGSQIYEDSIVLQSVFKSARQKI
Experimental: as §1

PAMPA permeability assay = format: in vitro ADME; details: pH 7.4
From the text: Table 3 Physicochemical Properties of 16k | column: result

PIK3CA = biological target: T25, PIK3CA (Homo sapiens, UniProt P42336); test: KINOMEscan scanEDGE; format: binding; details: read-out: % Control (1µM)
T25 construct: purchased DiscoveRx KINOMEscan (scanEDGE); Thermo Fisher SelectScreen (Z'-LYTE) for PLK-1
T25 sequence (P42336 whole entry): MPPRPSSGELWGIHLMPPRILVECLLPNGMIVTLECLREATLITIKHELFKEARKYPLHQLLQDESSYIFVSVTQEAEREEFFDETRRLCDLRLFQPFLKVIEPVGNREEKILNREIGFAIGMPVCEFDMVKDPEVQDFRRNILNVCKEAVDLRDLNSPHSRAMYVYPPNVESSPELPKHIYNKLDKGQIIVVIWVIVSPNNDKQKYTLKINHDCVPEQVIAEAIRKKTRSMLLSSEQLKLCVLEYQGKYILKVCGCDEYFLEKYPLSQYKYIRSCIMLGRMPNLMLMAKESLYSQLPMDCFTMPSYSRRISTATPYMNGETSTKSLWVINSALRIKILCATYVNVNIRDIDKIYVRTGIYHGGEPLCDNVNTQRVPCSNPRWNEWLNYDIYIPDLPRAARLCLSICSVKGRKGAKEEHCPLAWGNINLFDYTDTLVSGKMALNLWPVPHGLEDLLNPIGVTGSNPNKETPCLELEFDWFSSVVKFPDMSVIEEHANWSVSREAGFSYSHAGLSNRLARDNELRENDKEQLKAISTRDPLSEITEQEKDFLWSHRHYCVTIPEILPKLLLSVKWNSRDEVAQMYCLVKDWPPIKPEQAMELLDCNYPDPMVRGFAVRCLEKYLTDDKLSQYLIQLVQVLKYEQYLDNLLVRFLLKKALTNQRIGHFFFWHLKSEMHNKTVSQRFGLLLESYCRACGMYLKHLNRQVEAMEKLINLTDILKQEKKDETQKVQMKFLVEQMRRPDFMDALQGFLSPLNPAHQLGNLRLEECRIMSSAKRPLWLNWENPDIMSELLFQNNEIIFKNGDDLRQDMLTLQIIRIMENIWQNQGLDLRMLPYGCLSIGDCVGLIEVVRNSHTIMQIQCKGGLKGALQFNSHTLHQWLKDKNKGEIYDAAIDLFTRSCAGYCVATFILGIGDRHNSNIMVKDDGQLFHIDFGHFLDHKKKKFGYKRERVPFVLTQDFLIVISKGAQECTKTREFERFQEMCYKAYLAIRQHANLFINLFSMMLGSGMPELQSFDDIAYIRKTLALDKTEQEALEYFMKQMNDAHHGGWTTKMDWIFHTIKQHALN
Experimental: (§2) Compound X was assayed at 1 μM in the DiscoveRx KINOMEscan (scanEDGE) assay platform. The results for single-concentration binding interactions are reported as “%Ctrl” (DMSO = 100%Ctrl), where lower numbers indicate stronger hits.

PIK3C2B = biological target: T26, PIK3C2B (Homo sapiens, UniProt O00750); test: KINOMEscan scanEDGE; format: binding; details: read-out: % Control (1µM)
T26 construct: purchased DiscoveRx KINOMEscan (scanEDGE); Thermo Fisher SelectScreen (Z'-LYTE) for PLK-1
Experimental: as §2

PAK1 = biological target: T27, PAK1 (Homo sapiens, UniProt Q13153); test: KINOMEscan scanEDGE; format: binding; details: read-out: % Control (1µM)
T27 construct: purchased DiscoveRx KINOMEscan (scanEDGE); Thermo Fisher SelectScreen (Z'-LYTE) for PLK-1
Experimental: as §2

BRAF(V600E) = biological target: T28, BRAF(V600E) (Homo sapiens, UniProt P15056, V600E); test: KINOMEscan scanEDGE; format: binding; details: read-out: % Control (1µM)
T28 construct: purchased DiscoveRx KINOMEscan (scanEDGE); Thermo Fisher SelectScreen (Z'-LYTE) for PLK-1
T28 sequence (P15056 whole entry V600E): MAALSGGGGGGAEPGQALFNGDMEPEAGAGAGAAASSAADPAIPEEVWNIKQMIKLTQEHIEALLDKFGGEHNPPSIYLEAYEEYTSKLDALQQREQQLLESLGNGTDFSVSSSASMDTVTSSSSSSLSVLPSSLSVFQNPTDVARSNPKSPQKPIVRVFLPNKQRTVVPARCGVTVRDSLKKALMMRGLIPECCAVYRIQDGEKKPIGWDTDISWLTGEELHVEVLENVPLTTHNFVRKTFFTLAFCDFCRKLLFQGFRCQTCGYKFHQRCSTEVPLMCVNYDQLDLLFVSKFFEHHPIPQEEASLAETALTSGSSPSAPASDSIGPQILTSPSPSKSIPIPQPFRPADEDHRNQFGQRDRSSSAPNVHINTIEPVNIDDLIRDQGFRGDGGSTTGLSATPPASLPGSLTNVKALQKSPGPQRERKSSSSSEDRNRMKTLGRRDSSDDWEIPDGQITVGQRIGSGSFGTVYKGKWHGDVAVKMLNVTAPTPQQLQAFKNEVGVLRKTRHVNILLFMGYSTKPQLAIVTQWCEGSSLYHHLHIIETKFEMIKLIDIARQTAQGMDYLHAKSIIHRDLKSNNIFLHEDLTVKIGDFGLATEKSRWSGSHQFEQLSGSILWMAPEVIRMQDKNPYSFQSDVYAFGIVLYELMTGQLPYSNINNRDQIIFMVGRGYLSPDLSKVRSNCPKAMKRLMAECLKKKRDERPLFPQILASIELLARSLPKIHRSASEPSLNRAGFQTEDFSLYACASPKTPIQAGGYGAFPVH
Experimental: as §2

PDPK1 = biological target: T29, PDPK1 (Homo sapiens, UniProt O15530); test: KINOMEscan scanEDGE; format: binding; details: read-out: % Control (1µM)
T29 construct: purchased DiscoveRx KINOMEscan (scanEDGE); Thermo Fisher SelectScreen (Z'-LYTE) for PLK-1
T29 sequence (O15530 whole entry): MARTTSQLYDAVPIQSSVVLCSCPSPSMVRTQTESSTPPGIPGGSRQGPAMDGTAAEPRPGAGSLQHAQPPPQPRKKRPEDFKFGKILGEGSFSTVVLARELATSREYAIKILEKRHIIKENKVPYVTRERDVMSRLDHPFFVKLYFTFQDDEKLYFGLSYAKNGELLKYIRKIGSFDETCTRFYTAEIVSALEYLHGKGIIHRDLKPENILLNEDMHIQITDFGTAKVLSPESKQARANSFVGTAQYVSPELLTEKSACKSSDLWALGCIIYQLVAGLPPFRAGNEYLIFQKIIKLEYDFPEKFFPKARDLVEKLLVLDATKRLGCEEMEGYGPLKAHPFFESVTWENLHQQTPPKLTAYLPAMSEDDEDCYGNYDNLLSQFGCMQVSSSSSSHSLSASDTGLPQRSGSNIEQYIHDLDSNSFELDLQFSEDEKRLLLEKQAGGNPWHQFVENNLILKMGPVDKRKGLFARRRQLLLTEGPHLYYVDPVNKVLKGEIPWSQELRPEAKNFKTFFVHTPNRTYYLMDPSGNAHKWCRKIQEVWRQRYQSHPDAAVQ
Experimental: as §2

ROCK2 = biological target: T30, ROCK2 (Homo sapiens, UniProt O75116); test: KINOMEscan scanEDGE; format: binding; details: read-out: % Control (1µM)
T30 construct: purchased DiscoveRx KINOMEscan (scanEDGE); Thermo Fisher SelectScreen (Z'-LYTE) for PLK-1
T30 sequence (O75116 whole entry): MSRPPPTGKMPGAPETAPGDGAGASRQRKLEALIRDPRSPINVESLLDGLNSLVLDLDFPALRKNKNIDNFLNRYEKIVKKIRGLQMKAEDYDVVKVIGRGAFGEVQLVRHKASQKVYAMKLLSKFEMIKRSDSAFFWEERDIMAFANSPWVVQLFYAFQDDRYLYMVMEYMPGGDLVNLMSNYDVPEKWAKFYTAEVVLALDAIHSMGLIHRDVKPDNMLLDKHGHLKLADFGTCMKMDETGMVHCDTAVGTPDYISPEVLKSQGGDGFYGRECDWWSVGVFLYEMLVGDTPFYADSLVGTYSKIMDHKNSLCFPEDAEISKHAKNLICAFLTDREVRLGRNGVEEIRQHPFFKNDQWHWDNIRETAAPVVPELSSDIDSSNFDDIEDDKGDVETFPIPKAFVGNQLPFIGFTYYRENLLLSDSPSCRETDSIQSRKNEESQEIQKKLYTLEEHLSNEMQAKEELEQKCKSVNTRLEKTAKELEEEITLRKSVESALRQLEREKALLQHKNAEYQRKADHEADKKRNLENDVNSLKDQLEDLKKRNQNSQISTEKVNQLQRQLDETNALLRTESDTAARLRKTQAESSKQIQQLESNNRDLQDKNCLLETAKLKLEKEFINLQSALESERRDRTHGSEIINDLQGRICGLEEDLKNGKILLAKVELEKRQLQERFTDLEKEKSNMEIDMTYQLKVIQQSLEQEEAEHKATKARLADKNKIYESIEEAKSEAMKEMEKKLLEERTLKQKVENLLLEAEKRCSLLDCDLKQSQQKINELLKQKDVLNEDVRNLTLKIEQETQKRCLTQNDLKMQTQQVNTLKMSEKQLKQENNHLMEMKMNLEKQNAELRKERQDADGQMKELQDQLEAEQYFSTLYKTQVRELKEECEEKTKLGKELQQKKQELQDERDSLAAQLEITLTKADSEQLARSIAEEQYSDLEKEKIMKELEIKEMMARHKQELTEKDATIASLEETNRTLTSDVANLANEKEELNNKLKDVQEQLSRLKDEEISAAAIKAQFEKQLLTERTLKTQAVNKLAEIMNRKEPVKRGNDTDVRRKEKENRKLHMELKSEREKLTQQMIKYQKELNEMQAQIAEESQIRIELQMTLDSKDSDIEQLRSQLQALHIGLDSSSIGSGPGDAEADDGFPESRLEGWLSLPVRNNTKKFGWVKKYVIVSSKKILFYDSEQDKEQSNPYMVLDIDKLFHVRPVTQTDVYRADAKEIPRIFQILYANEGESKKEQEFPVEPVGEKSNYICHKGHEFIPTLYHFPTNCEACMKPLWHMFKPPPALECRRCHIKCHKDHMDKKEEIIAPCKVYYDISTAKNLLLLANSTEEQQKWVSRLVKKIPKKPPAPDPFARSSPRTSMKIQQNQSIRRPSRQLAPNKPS
Experimental: as §2

SMILES: CCOc1cc(C2CCN(C)CC2)ccc1Nc1ncc2c(n1)N(Cc1cc(C)cs1)[C@H](CC)C(=O)N2C [16k, (R)-2-((2-Ethoxy-4-(1-methylpiperidin-4-yl)phenyl)amino)-7-ethyl-5-methyl-8-((4-methylthiophen-2-yl)methyl)-7,8-dihydropteridin-6(5H)-one]
- Thermal Shift (PB1A(5)): -0.7 K
- Thermal Shift (BRD3(1)): 7.3 K
- Thermal Shift (BRD1): -0.15 K
- Thermal Shift (BRD3(2)): 5.9 K
- Thermal Shift (BRDT(1)): 2.7 K
- Thermal Shift (PB1A(4)): -0.1 K
- Thermal Shift (BRDT(2)): 0.6 K
- Thermal Shift (BRD4(2)): 4.4 K
- Thermal Shift (TAF1A(1)): -0.45 K
- Thermal Shift (PB1A(1)): 1.95 K
- Thermal Shift (EP300): -1 K
- Thermal Shift (BRPF1A): 0.8 K
- Thermal Shift (TRIM33B): -1.2 K
- Thermal Shift (BRD2(2)): 3.95 K
- Thermal Shift (TAF1A(2)): -1.05 K
- Thermal Shift (TAF1LA(1)): -3.4 K
- Thermal Shift (PCAF): -1.65 K
- Thermal Shift (PB1A(6)): -2.75 K
- Thermal Shift (WDR9): -4.2 K
- Thermal Shift (SMARCA4A): -4.5 K
- Thermal Shift (SMARCA2B): -0.35 K
- Thermal Shift (BRD2(1)): -0.95 K
- Thermal Shift (TAF1LA(2)): -2.9 K
- Thermal Shift (PB1A(3)): 0.35 K
- Thermal Shift (SP100): 0.05 K
- Thermal Shift (SMARCA2A): -2.4 K
- PAMPA pH7.4 (PAMPA permeability assay): 49 × 10^–6 cm/s
- remaining binding at 1 µM (PIK3CA): 96%
- remaining binding at 1 µM (PIK3C2B): 88%
- remaining binding at 1 µM (PAK1): 100%
- remaining binding at 1 µM (BRAF(V600E)): 98%
- remaining binding at 1 µM (PDPK1): 98%
- remaining binding at 1 µM (ROCK2): 100%
